# In PMC7162861, “Synthesis, cytotoxicity, pharmacokinetic profile, binding with DNA and BSA of new imidazo[1,2-a]pyrazine-benzo[d]imidazol-5-yl hybrids” (Scientific Reports, 2020):
# Assays:
# [1] = Experimental log P, shake-flask method; type: physicochemical; conditions: n-octanol/phosphate buffer pH 7.4, read-out: Exp. Log P
# Procedure: Partition coefficients or experimental log P values of all synthesized compounds (9–23, 30 and 31) were calculated using the shake-flask method. Log P values were determined using n-octanol and phosphate buffer (pH = 7.4) at 10:1 ratio of volumes. Stock solutions (10^−3 M) of compounds were prepared in DMSO. Glass vials were used to make final solutions i.e. stock solution (250 µL) and phosphate buffer (125 µL). To record the absorbance, wavelength was selected based on λmax of the respective compound. Initial absorbance (Ai) for every compound was noted consuming the stock solution in the buffer phase. Now added n-octanol to every vial and shaken well using a mechanical shaker for 50 minutes. To get separation of both phases, glass vials were centrifuged for 35 min. at 2500 rpm. Then, the layer of octanol was separated from glass vial. The final absorbance (Af) of each compound was recorded by using the buffer layer. The values of P for compounds were determined by the following equation (Eq. 8):8 P=Ai−Af/Af×Vw/Vo
SMILES,logP [1],melting point [°C]
"Brc1ccc(-c2cn3ccnc3c(-c3ccc4c(c3)ncn4C3CCCCC3)n2)cc1 [Compound 19, 6-(4-bromophenyl)-8-(1-cyclohexyl-1H-benzo[d]imidazol-5-yl)imidazo[1,2-a]pyrazine]",2.05,195 to 198
"Fc1ccccc1-c1cn2ccnc2c(-c2ccc3c(c2)ncn3C2CCCCC2)n1 [Compound 21, 8-(1-cyclohexyl-1H-benzo[d]imidazol-5-yl)-6-(2-fluorophenyl)imidazo[1,2-a]pyrazine]",1.77,190 to 193
"Clc1ccc(-c2cn3ccnc3c(-c3ccc4c(c3)ncn4C3CCCCC3)n2)cc1 [Compound 18, 6-(4-chlorophenyl)-8-(1-cyclohexyl-1H-benzo[d]imidazol-5-yl)imidazo[1,2-a]pyrazine]",1.34,193 to 196
"O=Cc1ccc(-c2cn3ccnc3c(-c3ccc4c(c3)ncn4C3CCCCC3)n2)cc1 [Compound 11, 4-(8-(1-cyclohexyl-1H-benzo[d]imidazol-5-yl)imidazo[1,2-a]pyrazin-6-yl)benzaldehyde]",0.23,201 to 203
"Cc1cccc(-c2cn3ccnc3c(-c3ccc4c(c3)ncn4C3CCCCC3)n2)c1 [Compound 15, 8-(1-cyclohexyl-1H-benzo[d]imidazol-5-yl)-6-(m-tolyl)imidazo[1,2-a]pyrazine]",1.54,183 to 186
"CC(=O)c1ccc(-c2cn3ccnc3c(-c3ccc4c(c3)ncn4C3CCCCC3)n2)cc1 [Compound 17, 1-(4-(8-(1-cyclohexyl-1H-benzo[d]imidazol-5-yl)imidazo[1,2-a]pyrazin-6-yl)phenyl)ethan-1-one]",1.41,200 to 203
